Experimental data reported in the supplement of paper PMC10307832.

How the values were obtained:
Assay in all cases: relative viability (nuclei count vs DMSO), 5 days (fraction); higher = more cells survive
[1] = test system: NCI-H2342
Outline: (§1)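 Lung cancer cell lines in 1536-well plates got either a single drug or a fixed anchor-drug dose together with five library-drug doses (not always all listed) in √10 steps, by pin tool, on the day after seeding. Nuclei were counted after 5 days, and relative viability is the treated-to-vehicle ratio of nuclei counts. Values are medians of duplicate plates.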

[2] = test system: NCI-H1437
Outline: as §1

[3] = test system: NCI-H596
Outline: as §1

[4] = test system: NCI-H1623
Outline: as §1

[5] = test system: NCI-H1355
Outline: as §1

[6] = test system: A549
Outline: as §1

[7] = test system: LCLC-97TM1
Outline: as §1

[8] = test system: NCI-H1648
Outline: as §1

Question: What does the source list for `Cc1csc(=NC2CCCCC2)n1/N=C/c1ccc(O)c(O)c1O` [MIM1] + N=C(N)NC(=N)NCCc1ccccc1 [Phenformin] (partner 250 µM)?
Answer: relative viability ([1]; first compound 0.2 µM): 0.656; relative viability ([1]; first compound 0.6325 µM): 0.543; relative viability ([1]; first compound 2 µM): 0.584; relative viability ([1]; first compound 6.325 µM): 0.53; relative viability ([1]; first compound 20 µM): 0.785; relative viability ([2]; first compound 0.2 µM): 0.256; relative viability ([2]; first compound 0.6325 µM): 0.246; relative viability ([2]; first compound 2 µM): 0.244; relative viability ([2]; first compound 6.325 µM): 0.205; relative viability ([2]; first compound 20 µM): 0.217; relative viability ([3]; first compound 0.2 µM): 0.705; relative viability ([3]; first compound 0.6325 µM): 0.829; relative viability ([3]; first compound 2 µM): 0.733; relative viability ([3]; first compound 6.325 µM): 0.676; relative viability ([3]; first compound 20 µM): 0.773; relative viability ([4]; first compound 0.2 µM): 0.561; relative viability ([4]; first compound 0.6325 µM): 0.428; relative viability ([4]; first compound 2 µM): 0.587; relative viability ([4]; first compound 6.325 µM): 0.562; relative viability ([4]; first compound 20 µM): 0.374; relative viability ([5]; first compound 0.2 µM): 0.46; relative viability ([5]; first compound 0.6325 µM): 0.351; relative viability ([5]; first compound 2 µM): 0.443; relative viability ([5]; first compound 6.325 µM): 0.399; relative viability ([5]; first compound 20 µM): 0.274; relative viability ([6]; first compound 0.2 µM): 0.164; relative viability ([6]; first compound 0.6325 µM): 0.108; relative viability ([6]; first compound 2 µM): 0.144; relative viability ([6]; first compound 6.325 µM): 0.108; relative viability ([6]; first compound 20 µM): 0.0481; relative viability ([7]; first compound 0.2 µM): 0.445; relative viability ([7]; first compound 0.6325 µM): 0.434; relative viability ([7]; first compound 2 µM): 0.413; relative viability ([7]; first compound 6.325 µM): 0.312; relative viability ([7]; first compound 20 µM): 0.142

Question: What does the source list for `CN1CCN(CCOc2cc(OC3CCOCC3)c3c(Nc4c(Cl)ccc5c4OCO5)ncnc3c2)CC1` [Saracatinib] + Cc1cc(Nc2cc(N3CCN(C)CC3)nc(Sc3ccc(NC(=O)C4CC4)cc3)n2)n[nH]1 [Tozasertib] (partner 0.1 µM)?
Answer: relative viability ([1]; first compound 0.02 µM): 0.499; relative viability ([1]; first compound 0.2 µM): 0.608; relative viability ([1]; first compound 0.6325 µM): 0.473; relative viability ([1]; first compound 2 µM): 0.496; relative viability ([8]; first compound 0.02 µM): 0.629; relative viability ([8]; first compound 0.6325 µM): 0.813; relative viability ([8]; first compound 2 µM): 0.362; relative viability ([2]; first compound 0.02 µM): 0.431; relative viability ([2]; first compound 0.2 µM): 0.31; relative viability ([2]; first compound 0.6325 µM): 0.407; relative viability ([2]; first compound 2 µM): 0.344; relative viability ([3]; first compound 0.02 µM): 0.8; relative viability ([3]; first compound 0.2 µM): 0.847; relative viability ([3]; first compound 0.6325 µM): 1.07; relative viability ([3]; first compound 2 µM): 0.708; relative viability ([4]; first compound 0.02 µM): 0.447; relative viability ([4]; first compound 0.2 µM): 0.443; relative viability ([4]; first compound 0.6325 µM): 0.456; relative viability ([4]; first compound 2 µM): 0.348; relative viability ([5]; first compound 0.02 µM): 0.532; relative viability ([5]; first compound 0.2 µM): 0.317; relative viability ([5]; first compound 0.6325 µM): 0.454; relative viability ([5]; first compound 2 µM): 0.36; relative viability ([7]; first compound 0.02 µM): 0.21; relative viability ([7]; first compound 0.2 µM): 0.173; relative viability ([7]; first compound 0.6325 µM): 0.287; relative viability ([7]; first compound 2 µM): 0.185

Question: Which results are given for `Cc1cn(-c2cc(NC(=O)c3ccc(C)c(Nc4nccc(-c5cccnc5)n4)c3)cc(C(F)(F)F)c2)cn1` [Nilotinib] + COc1cccc2cc(-c3nc([C@H]4CC[C@H](C(=O)O)CC4)n4ncnc(N)c34)[nH]c12 [OSI-027] (partner 0.5 µM)?
Answer: relative viability ([1]; first compound 0.001 µM): 0.605; relative viability ([1]; first compound 0.003162 µM): 0.618; relative viability ([1]; first compound 0.01 µM): 0.558; relative viability ([1]; first compound 0.03162 µM): 0.536; relative viability ([1]; first compound 0.1 µM): 0.518; relative viability ([8]; first compound 0.003162 µM): 0.257; relative viability ([8]; first compound 0.01 µM): 0.257; relative viability ([8]; first compound 0.03162 µM): 0.256; relative viability ([8]; first compound 0.1 µM): 0.253; relative viability ([2]; first compound 0.001 µM): 0.826; relative viability ([2]; first compound 0.003162 µM): 0.815; relative viability ([2]; first compound 0.01 µM): 0.876; relative viability ([2]; first compound 0.03162 µM): 0.619; relative viability ([2]; first compound 0.1 µM): 0.902; relative viability ([3]; first compound 0.001 µM): 0.725; relative viability ([3]; first compound 0.003162 µM): 0.655; relative viability ([3]; first compound 0.01 µM): 0.57; relative viability ([3]; first compound 0.03162 µM): 0.306; relative viability ([3]; first compound 0.1 µM): 0.415; relative viability ([4]; first compound 0.001 µM): 0.395; relative viability ([4]; first compound 0.003162 µM): 0.422; relative viability ([4]; first compound 0.01 µM): 0.444; relative viability ([4]; first compound 0.03162 µM): 0.432; relative viability ([4]; first compound 0.1 µM): 0.423; relative viability ([5]; first compound 0.001 µM): 0.384; relative viability ([5]; first compound 0.003162 µM): 0.388; relative viability ([5]; first compound 0.01 µM): 0.324; relative viability ([5]; first compound 0.03162 µM): 0.314; relative viability ([5]; first compound 0.1 µM): 0.329; relative viability ([7]; first compound 0.001 µM): 0.552; relative viability ([7]; first compound 0.003162 µM): 0.559; relative viability ([7]; first compound 0.01 µM): 0.479; relative viability ([7]; first compound 0.03162 µM): 0.432; relative viability ([7]; first compound 0.1 µM): 0.467

Question: For `CCNC(=O)c1noc(-c2cc(C(C)C)c(O)cc2O)c1-c1ccc(CN2CCOCC2)cc1` [Luminespib] + COc1cccc2cc(-c3nc([C@H]4CC[C@H](C(=O)O)CC4)n4ncnc(N)c34)[nH]c12 [OSI-027] (partner 0.5 µM), which relative viability ([1]; first compound 0.002 µM) is on record?
Answer: Its relative viability is 0.623.

Question: What about the relative viability ([1]; first compound 0.006325 µM) of the same compound?
Answer: The relative viability was 0.586.

Question: And the relative viability ([1]; first compound 0.02 µM)?
Answer: Its relative viability is 0.545.

Question: What about the relative viability ([1]; first compound 0.06325 µM) of the same compound?
Answer: Its relative viability is 0.569.

Question: And the relative viability ([1]; first compound 0.2 µM)?
Answer: Its relative viability is 0.397.

Question: What about the relative viability ([8]; first compound 0.006325 µM) of the same compound?
Answer: Its relative viability is 0.283.

Question: And the relative viability ([8]; first compound 0.02 µM)?
Answer: Its relative viability is 0.289.

Question: And the relative viability ([8]; first compound 0.06325 µM)?
Answer: The relative viability was 0.366.

Question: What about the relative viability ([8]; first compound 0.2 µM) of the same compound?
Answer: Its relative viability is 0.335.

Question: And the relative viability ([2]; first compound 0.002 µM)?
Answer: Its relative viability is 0.838.

Question: What about the relative viability ([2]; first compound 0.006325 µM) of the same compound?
Answer: Its relative viability is 0.845.

Question: And the relative viability ([2]; first compound 0.02 µM)?
Answer: Its relative viability is 0.466.

Question: And the relative viability ([2]; first compound 0.06325 µM)?
Answer: The relative viability was 0.57.

Question: And the relative viability ([2]; first compound 0.2 µM)?
Answer: Its relative viability is 0.187.

Question: And the relative viability ([3]; first compound 0.002 µM)?
Answer: The relative viability was 0.797.

Question: What about the relative viability ([3]; first compound 0.006325 µM) of the same compound?
Answer: Its relative viability is 0.788.

Question: What about the relative viability ([3]; first compound 0.02 µM) of the same compound?
Answer: Its relative viability is 0.415.

Question: What about the relative viability ([3]; first compound 0.06325 µM) of the same compound?
Answer: Its relative viability is 0.642.

Question: And the relative viability ([3]; first compound 0.2 µM)?
Answer: Its relative viability is 0.377.

Question: And the relative viability ([4]; first compound 0.002 µM)?
Answer: Its relative viability is 0.449.

Question: And the relative viability ([4]; first compound 0.006325 µM)?
Answer: Its relative viability is 0.439.

Question: And the relative viability ([4]; first compound 0.02 µM)?
Answer: The relative viability was 0.415.

Question: What about the relative viability ([4]; first compound 0.06325 µM) of the same compound?
Answer: Its relative viability is 0.343.

Question: What about the relative viability ([4]; first compound 0.2 µM) of the same compound?
Answer: The relative viability was 0.293.

Question: What about the relative viability ([5]; first compound 0.002 µM) of the same compound?
Answer: Its relative viability is 0.39.

Question: What about the relative viability ([5]; first compound 0.006325 µM) of the same compound?
Answer: Its relative viability is 0.377.

Question: And the relative viability ([5]; first compound 0.02 µM)?
Answer: Its relative viability is 0.277.

Question: And the relative viability ([5]; first compound 0.06325 µM)?
Answer: Its relative viability is 0.163.

Question: What about the relative viability ([5]; first compound 0.2 µM) of the same compound?
Answer: Its relative viability is 0.148.

Question: And the relative viability ([7]; first compound 0.002 µM)?
Answer: Its relative viability is 0.543.

Question: And the relative viability ([7]; first compound 0.006325 µM)?
Answer: Its relative viability is 0.601.

Question: What about the relative viability ([7]; first compound 0.02 µM) of the same compound?
Answer: Its relative viability is 0.304.

Question: What about the relative viability ([7]; first compound 0.06325 µM) of the same compound?
Answer: The relative viability was 0.492.

Question: What about the relative viability ([7]; first compound 0.2 µM) of the same compound?
Answer: Its relative viability is 0.114.
